Data set [1] deals with BDNF exon IV expression in cochlear neurons. The data set is described as follows: Salicylate-induced acute tinnitus: effect of test substance on BDNF/c-fos expression in cochlear neurons (RT-PCR). In kind it is in vivo, rat.
The subject of data set [2] is Arc expression in auditory cortex. The data set is described as follows: Salicylate-induced acute tinnitus: effect of test substance on gene expression in the auditory cortex (RT-PCR). In kind it is in vivo, rat. The conditions noted are these: systemic 0.5 mg/kg, 2.5 hours after 350 mg/kg salicylate, n=12, p<0.05. How it is done: Rnase H reverse transcriptase according to the Invitrogen protocol.
Two and half hours after the induction of acute tinnitus by injection of 350 mg/kg salicylate, the animals received systemic administration of midazolam (Dormicum, Roche, Grenzach-Wyhlen, Germany) (0.5 mg/kg of body weight), and gene expression was investigated after removal of organs with the aid of RT-PCR. […] Statistical analysis was carried out with Student's T test; *=p<0.05.
In a further experiment corresponding to the above, a GABA receptor agonist was administered, under conditions which were otherwise identical, not systemically but locally into the niche of the round window.

For data set [3] the following is noted: before and 20 hours after local salicylate, 5 μl, 70 mg/kg, n=5. The text has this:
Adult female Wistar rats weighing between 280 and 300 grams were used for the experiments. The treatment and handling of these animals took place in conformity with the institutional guidelines of Tübingen University, Tierforschungsanstalt.
(§1) The rats were anesthetized intraperitoneally by the method of Guitton, M. J. et al. (2003), Salicylate induces tinnitus through activation of cochlear NMDA receptors, J. Neurosci. 23, pages 3944 to 3952, in order to place a so-called gel foam (Gelita Tampon; B. Braun Medical, Melsungen, Germany) over the round window of both ears. The gel foam was impregnated as indicated with salicylate, which was diluted in artificial perilymph solution (70 mg/ml), or with the corresponding volume of artificial perilymph alone. The gel foam was in the niche of the round window as described; Guitton J. et al. (loc. cit.). The salicylate was locally administered thus for 20 hours. After this time, the animals were sacrificed and the cochlea and the auditory cortex were removed.
The anesthesia of the animals and the ABR screening was carried out as described previously; cf. Knipper, M. et al. (2000), loc. cit.; Schimmang, T. et al. (2003), Lack of BDNF and trkB signalling in the postnatal cochlea leads to a spatial reshaping of innervation along the tonotopic axis and hearing loss, Development 130, pages 4741 to 4750. […]

Data set [4] relates to c-fos, BDNF exon-III and BDNF exon IV transcripts in cochlear tissue. As for the experimental part:
as §1

The subject of data set [5] is c-fos, BDNF exon-III and BDNF exon IV in cochlear spiral ganglia. As to conditions: local 5 μl 70 mg/ml and systemic 350 mg/kg, versus artificial perilymph.
Protocol: Carbon dioxide was used for deep anesthesia of the animals, which were then decapitated. The cochleae were isolated and prepared as described previously; cf. […] Briefly, the cochleae were fixed by immersion in 2% paraformaldehyde, 125 mM sucrose in 100 mM phosphate-buffered saline (PBS), pH 7.4, for two hours and, following the fixation, decalcified in rapid bond decalcifier (#904687, Eurobio, Fisher-Scientific, 61130 Nidderau, Germany) for 45 minutes, subsequently followed by incubation in 25% sucrose, 1 mM protease inhibitor (Pefabloc, Roche) in Hanks buffered saline overnight. Following the overnight incubation, the cochleae were embedded in O.C.T. compound (Miles Laboratories, Elkhart, Ind., USA). The tissues were then cryosectioned with a thickness of 10 μm for the in situ hybridization, stored on SuperFrost*/plus slides and stored at −20° C. before use.
Genomic DNA from rat liver tissue was isolated using the Easy DNA kit from Invitrogen in accordance with the manufacturer's information. A polymerase chain reaction was carried out in order to amplify all four non-coding 5′ exons of the BDNF gene.
In the PCR reaction, the genomic DNA was first denatured at 94° C. for four minutes, followed by 30 cycles of one minute at 94° C., one minute at 55° C. and one minute at 72° C. The extension reaction was carried out at 70° C. for 10 minutes. […]
For data set [6], the system named is c-fos, BDNF exon-III, BDNF exon-IV and Arc in auditory cortex.
Protocol: Total RNA was isolated using the total RNeasy kit from Qiagen both from the cochlea and from brain tissue and was treated with DNase (Ambion) in order to remove DNA contaminants. The RNA was then purified and the concentration was determined by spectrometric measurements. Reverse transcription of the brain tissue was carried out in a reaction volume of 20 μl using 1 μg of total RNA as template and [sequence] II Rnase H reverse transcriptase according to the Invitrogen protocol. Because of the limited amount of RNA in the cochlear tissues, Qiagen Senscript reverse transcriptase was used, as described in the Qiagen protocol, using 50 ng of total RNA as template. The number of cycles and the annealing temperature for the PCR was optimized so that the signals obtained for BDNF, c-fos and glyceraldehyde-3-phosphate dehydrogenase (GAPDH) were not saturated.
The PCR was carried out in a final reaction volume of 25 μl, using both primers for GAPDH and the activity-dependent genes simultaneously. In this duplex PCR reaction, a housekeeping gene in the same PCR reaction represents an internal control, so that the intensity of the activity-dependent gene can be compared unambiguously with the control and the treated samples. PCR ready-to-go beads from Amersham Pharmacia were used in order to ensure a standardization of the PCR conditions and to reduce contamination during pipetting. Finally, the PCR products were analyzed in a 2% agarose gel which was visualized using an ethidium bromide stain and densitometric analysis using an Alpha Imager 2200 from Biometra. The intensity of the amplified activity-dependent gene was normalized for each reaction to the level of the coamplified GAPDH. The amplification conditions for arc, BDNF, c-fos and GAPDH were for the initial denaturation phase of 94° C. for three minutes, 30 cycles each of one minute of denaturation (94° C.), one minute of annealing (54° C.), 1.5 minutes of extension (72° C.) and a final extension phase of ten minutes at 72° C.
The auditory cortices investigated were obtained from animals in which the cochlea were investigated for the dose-dependent effect of salicylate, the mRNA was isolated and an RT-PCR was carried out as described under Material and Methods.
The mark [7] stands for this setting: increasing amounts of salicylate locally into round window niche, n=3.

Each structure is given as a SMILES string. Entries after “also recorded” stand apart in the source; their conditions may differ. Read-outs that look alike come from different tables or passages of the source.

With `Cc1ncc2n1-c1ccc(Cl)cc1C(c1ccccc1F)=NC2` [midazolam], in data set [1] (systemic 0.5 mg/kg, 2.5 hours after 350 mg/kg salicylate, n=7, p<0.05), the “effect of salicylate on the expression of BDNF exon-IV in cochlear neurons” value was “significant reduction; also recorded: significantly reduced; also recorded: inhibited”. Also, the “effect on salicylate-changed expression of c-fos” value in data set [1] (systemic 0.5 mg/kg, 2.5 hours after 350 mg/kg salicylate, n=7 to 12) is given as “remains incapable of being influenced”. Also, the “effect of salicylate on the expression of Arc in the auditory cortex” value in data set [2] is reported as “significant reduction”.
For the compound `COC(=O)C1=C(C)NC(C)=C(C(=O)OC(C)C)C1c1cccc2nonc12` (centres unmarked) [isradipine], the “salicylate-induced upregulation of BDNF (exon IV) in cochlear neurons” value in data set [1] (10 μl of 10 mM solution locally at round window 22 hours before tissue removal, salicylate 350 mg/kg systemic 3 hours before) was “inhibited”.
For `O=C(O)c1ccccc1O` [salicylate], the “frequency-specific ABR screening” value in data set [3] is “no loss of hearing”. In data set [4] (cochlea, n=8, p<0.05), the “increase in the expression of BDNF exon-IV (densitometric analysis)” value turned out to be 49±12% and the “increase in the expression of c-fos (densitometric analysis)” value is reported as 69±11%. For the same compound, the “c-fos expression in cochlear tissue” value in data set [4] (gel foam local, 5 μl, 70 mg/ml, found at 20 hours, not at three hours) was “significant upregulation”. For the same compound, the “expression of the BDNF exon-IV transcript in cochlear neurons” value in data set [4] (setting [7]) is on record as “increased”. Also, the “expression of BDNF exon-IV and c-fos in cochlear neurons” value in data set [4] (systemic 350 mg/kg salicylate) is listed as “elevated expression”. For the same compound, the “c-fos expression in cochlear tissue” value in data set [4] (systemic i.p. 350 mg/kg of body weight, after three hours) is listed as “upregulation”. For the same compound, the “hybridization signals for c-fos, BDNF exon-III and BDNF exon IV in the middle basal cochlear turn” value in data set [5] is “significantly increased”. In data set [6] (auditory cortex, n=8, p<0.05), the “decrease in the expression of BDNF exon-IV (densitometric analysis)” value is 49±12% and the “decrease in the expression of c-fos (densitometric analysis)” value came out at 69±11%. For the same compound, the “expression of Arc in the auditory cortex” value in data set [6] (setting [7]) is given as “decreased”. Further, in data set [6] (local administration, all dosages of salicylate), the “expression of c-fos, BDNF exon-III and BDNF exon-IV in the auditory cortex” value is recorded as “reduction”. Besides, the “expression of Arc in the primary auditory cortex” value in data set [6] (systemic 350 mg/kg salicylate) was “decrease”.

Source of the values: patent publication US20170072007A1, “PHANTOM PHENOMENA TREATMENT” (OTOLANUM AG, priority 2005, published 2017).
